In PubChem BioAssay AID2060905 (Molecular Pharmacology Branch, DTP, NCI, 2025):
pIC50: −log10 of the molar value.

Test system: 282377-053-R-J1-PDC complex spheroid viability
Test: Anticancer human tumor 282377-053-R-J1-PDC patient-derived colon adenocarcinoma cell line growth inhibition [RAS]
Conditions: for pIC50: curve of first compound; for viability, T/C: stronger effect = lower value; active = viability on the fitted dose curve at most 10% of control; inactive = the rest
How it was run: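 Agents were tested in combination matrices in half-log decrements from a top concentration at or near clinical Cmax (10 microM if undetermined). Targets were multi-cell spheroids of tumour lines plus HUVEC and MSC stromal cells.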
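Also: spheroids exposed to agents for seven days before readout.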
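For viability, T/C in this document: luminescence viability as percent of DMSO vehicle control wells.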

C=CC(=O)N1CCN(c2nc(OCC3CCCN3C)nc3c(F)c(-c4nc(N)cc(C)c4C(F)(F)F)c(Cl)cc23)C(C)C1 (configuration not stated) + CCn1c(-c2cccnc2C(C)OC)c2c3cc(ccc31)N1CCOC(CC(NC(=O)C(C(C)C)N(C)C(=O)C3(F)CCN(C(=O)C#CC(C)(C)N(C)C)CC3)C(=O)N3CCCC(N3)C(=O)OCC(C)(C)C2)C1
< 6.00: pIC50 (second compound 0.000949 µM) | pIC50 (second compound 0.003 µM) | pIC50 (second compound 0.00949 µM) | pIC50 (second compound 0.03 µM) | pIC50 (second compound 0.0949 µM) | pIC50 (second compound 0.3 µM)
inactive: viability, T/C (second compound 0.000949 µM, first compound 0.00316 µM) 90.6% | viability, T/C (second compound 0.000949 µM, first compound 0.01 µM) 110% | viability, T/C (second compound 0.000949 µM, first compound 0.0316 µM) 109% | viability, T/C (second compound 0.000949 µM, first compound 0.1 µM) 92.1% | viability, T/C (second compound 0.000949 µM, first compound 0.316 µM) 98% | viability, T/C (second compound 0.000949 µM, first compound 1 µM) 87.1% | viability, T/C (second compound 0.003 µM, first compound 0.00316 µM) 105% | viability, T/C (second compound 0.003 µM, first compound 0.01 µM) 131% | viability, T/C (second compound 0.003 µM, first compound 0.0316 µM) 86.9% | viability, T/C (second compound 0.003 µM, first compound 0.1 µM) 101% | viability, T/C (second compound 0.003 µM, first compound 0.316 µM) 81.2% | viability, T/C (second compound 0.003 µM, first compound 1 µM) 85.3% | viability, T/C (second compound 0.00949 µM, first compound 0.00316 µM) 96.2% | viability, T/C (second compound 0.00949 µM, first compound 0.01 µM) 92.7% | viability, T/C (second compound 0.00949 µM, first compound 0.0316 µM) 83.6% | viability, T/C (second compound 0.00949 µM, first compound 0.1 µM) 88.7% | viability, T/C (second compound 0.00949 µM, first compound 0.316 µM) 81.5% | viability, T/C (second compound 0.00949 µM, first compound 1 µM) 82.8% | viability, T/C (second compound 0.03 µM, first compound 0.00316 µM) 92.9% | viability, T/C (second compound 0.03 µM, first compound 0.01 µM) 97.5% | viability, T/C (second compound 0.03 µM, first compound 0.0316 µM) 86.2% | viability, T/C (second compound 0.03 µM, first compound 0.1 µM) 112% | viability, T/C (second compound 0.03 µM, first compound 0.316 µM) 89.9% | viability, T/C (second compound 0.03 µM, first compound 1 µM) 93.8% | viability, T/C (second compound 0.0949 µM, first compound 0.00316 µM) 90.5% | viability, T/C (second compound 0.0949 µM, first compound 0.01 µM) 104% | viability, T/C (second compound 0.0949 µM, first compound 0.0316 µM) 115% | viability, T/C (second compound 0.0949 µM, first compound 0.1 µM) 109% | viability, T/C (second compound 0.0949 µM, first compound 0.316 µM) 109% | viability, T/C (second compound 0.0949 µM, first compound 1 µM) 96.3% | viability, T/C (second compound 0.3 µM, first compound 0.00316 µM) 90.1% | viability, T/C (second compound 0.3 µM, first compound 0.01 µM) 92.1% | viability, T/C (second compound 0.3 µM, first compound 0.0316 µM) 97.5% | viability, T/C (second compound 0.3 µM, first compound 0.1 µM) 93.3% | viability, T/C (second compound 0.3 µM, first compound 0.316 µM) 113% | viability, T/C (second compound 0.3 µM, first compound 1 µM) 98.2%
